Experimental data as given in patent US11285135B2 (AMGEN INC., priority 2016, dated 2022).
Where two headings read alike, the source gives them in different places.

Legend:
[1] = tested on: Phosphorylation of ERK½ in A549 cells; assay: Phospho-ERK½ MSD Assay in A549 cells; assay type: cell-based; settings: 4 hours compound treatment, 10 ng/mL EGF for 10 min, read-out: p-ERK IC50 (A549)
Method: (§1) Phospho-ERK½ MSD Assay: MIA PaCa-2 (ATCC® CRL-1420™) and A549 (ATCC® CCL-185™) cells were cultured in RPMI 1640 Medium (ThermoFisher Scientific 11875093) containing 10% fetal bovine serum (ThermoFisher Scientific 16000044) and 1× penicillin-streptomycin-glutamine (ThermoFisher Scientific 10378016). Sixteen hours prior to compound treatment, MIA PaCa-2 or A549 cells were seeded in 96-well cell culture plates at a density of 25,000 cells/well and incubated at 37° C., 5% CO2. A compound dose-response titration was diluted in growth media, added to appropriate wells of a cell culture plate, and then incubated at 37° C., 5% CO2 for 4 hours. Following compound treatment, cells were stimulated with 10 ng/mL EGF (Roche 11376454001) for 10 min, washed with ice-cold Dulbecco's phosphate-buffered saline, no Ca^2+ or Mg^2+ (ThermoFisher Scientific 14190144), and then lysed in RIPA buffer (50 mM Tris-HCl pH 7.5, 1% Igepal, 0.5% sodium deoxycholate, 150 mM NaCl, and 0.5% sodium dodecyl sulfate) containing protease inhibitors (Roche 4693132001) and phosphatase inhibitors (Roche 4906837001). Cell lysates were stored frozen at −80° C. overnight. Phosphorylation of ERK½ in compound-treated lysates was assayed using Phospho-ERK½ Whole Cell Lysate kits (Meso Scale Discovery K151DWD) according to the manufacturer's protocol. Assay plates were read on a Meso Scale Discovery Sector Imager 6000, and data were analyzed using a 4-parameter logistic model to calculate IC50 values.

[2] = tested on: Phosphorylation of ERK½ in MIA PaCa-2 cells; assay: Phospho-ERK½ MSD Assay in MIA PaCa-2 cells; assay type: cell-based; settings: 4 hours compound treatment, 10 ng/mL EGF for 10 min, read-out: p-ERK IC50 (MIA PaCa-2)
Method: as §1

[3] = target: GDP-bound protein (aa 1-169), containing both G12C and C118A amino acid substitutions (Homo sapiens, UniProt P01116, C118A/G12C); assay: Coupled Nucleotide Exchange Assay (SOS-mediated nucleotide exchange, AlphaScreen); assay type: biochemical; settings: 2 hours compound pre-incubation
Sequence of GDP-bound protein (aa 1-169), containing both G12C and C118A amino acid substitutions (P01116 1-169 isoform P01116-2 G12C/C118A): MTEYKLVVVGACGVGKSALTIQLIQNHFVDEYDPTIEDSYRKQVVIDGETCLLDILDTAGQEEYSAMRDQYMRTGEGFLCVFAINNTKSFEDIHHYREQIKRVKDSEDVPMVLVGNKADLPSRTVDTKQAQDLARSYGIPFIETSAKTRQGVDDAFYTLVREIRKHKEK
Method: Coupled Nucleotide Exchange Assay: Purified GDP-bound […] protein (aa 1-169), containing both G12C and C118A amino acid substitutions and an N-terminal His-tag, was pre-incubated with a compound dose-response titration for 2 hours in assay buffer (25 mM HEPES pH 7.4, 10 mM MgCl2, and 0.01% Triton X-100). Following compound pre-incubation, purified SOS protein (aa 564-1049) and GTP (Roche 10106399001) were added to the assay wells and incubated for an additional hour. […] The assay plates were then read on a PerkinElmer EnVision Multilabel Reader, using AlphaScreen® technology, and data were analyzed using a 4-parameter logistic model to calculate IC50 values.

[4] = Homo sapiens, MIA PaCa-2, MIA PaCa-2 cells

IC50 ([1]; Homo sapiens, A549, A549 cells) | IC50 [2, 4] | Coupled exchange IC50 [3] | IC50 ([1]; A549 cells) | IC50 ([2]; MIA PaCa-2 cells) | Structure (SMILES)
> 100 µM | 6.07 µM | 0.894 µM |  |  | C=CC(=O)N1CCN(c2snc3c(F)c(-c4cc(O)cc5ccccc45)c(Cl)cc23)[C@H](CC)C1 (racemic) [Example 1-8]
> 100 µM | 4.83 µM | 0.492 µM |  |  | C=CC(=O)N1CCN(c2snc3c(F)c(-c4cc(O)cc5ccccc45)c(Cl)cc23)C[C@@H]1CO (racemic) [Example 1-16, 1-(4-(5-chloro-7-fluoro-6-(3-hydroxy-1-naphthalenyl)-2,1-benzothiazol-3-yl)-2-(hydroxmethyl)-1-piperazinyl)-2-propen-1-one]
> 33.3 µM | 0.559 µM | 0.370 µM |  |  | C=CC(=O)N1CCN(c2snc3c(F)c(-c4cc(O)cc5ccccc45)c(Cl)cc23)C(CO)C1 (racemic) [Example 1-18, 1-(4-(5-chloro-7-fluoro-6-(3-hydroxy-1-naphthalenyl)-2,1-benzothiazol-3-yl)-3-(hydroxymethyl)-1-piperazinyl)-2-propen-1-one]
3.7 µM | 5.46 µM | 0.684 µM |  |  | C=CC(=O)N1CCN(c2snc3nc(-c4cc(O)cc5ccccc45)c(Cl)cc23)C(C)C1 (racemic) [Example 2-5, 1-(4-(5-chloro-6-(3-hydroxy-1-naphthalenyl)[1,2]thiazolo[3,4-b]pyridin-3-yl)-3-methyl-1-piperazinyl)-2-propen-1-one]
3.7 µM | 2.97 µM | 1.59 µM |  |  | C=CC(=O)N1CCN(c2snc3nc(-c4c(C)ccc5[nH]ncc45)c(Cl)cc23)C(C)C1 (racemic) [Example 2-6, 1-(4-(5-chloro-6-(5-methyl-1H-indazol-4-yl)[1,2]thiazolo[3,4-b]pyridin-3-yl)-3-methyl-1-piperazinyl)-2-propen-1-one]
> 33.3 µM | 3.87 µM | 1.08 µM |  |  | C=CC(=O)N1C[C@@H](C)N(c2snc3c(F)c(-c4cc(O)cc5ccccc45)c(Cl)cc23)[C@H](C)C1 (racemic) [Example 2-7, 1-(4-(5-chloro-7-fluoro-6-(3-hydroxy-1-naphthalenyl)-2,1-benzothiazol-3-yl)-3,5-dimethyl-1-piperazinyl)-2-propen-1-one]
> 100 µM | 0.258 µM | 0.361 µM |  |  | C=CC(=O)N1CCN(c2snc3c(F)c(-c4c(C)ccc5[nH]ncc45)c(Cl)cc23)[C@H](C(F)F)C1 (racemic) [Example 2-8, 1-(4-(5-chloro-7-fluoro-6-(5-methyl-1H-indazol-4-yl)-2,1-benzothiazol-3-yl)-3-(difluoromethyl)-1-piperazinyl)-2-propen-1-one]
 |  |  | 14.9 µM | 0.023 µM | C=CC(=O)N1CCN(c2nc(=O)n(-c3ccncc3C3CC3)c3cc(-c4c(O)cccc4F)c(Cl)cc23)[C@@H](C)C1 (single isomer, unassigned) [Example 9-7-1]
 |  |  | 62 µM | 0.237 µM | C=CC(=O)N1CCN(c2nc(=O)n(-c3ccncc3C3CC3)c3cc(-c4c(O)cccc4F)c(Cl)cc23)[C@@H](C)C1 (single isomer, unassigned) [Example 9-7-2]
> 100 µM | 3.84 µM |  |  |  | C=CC(=O)N1CCN(c2snc3cc(-c4cc(O)cc5ccccc45)c(Cl)cc23)CC1 [Example 1-3]
> 100 µM |  | 2.20 µM |  |  | C=CC(=O)N1CCN(c2snc3c(F)c(-c4cc(O)ccc4F)c(Cl)cc23)CC1 [Example 1-28, 1-(4-(5-chloro-7-fluoro-6-(2-fluoro-5-hydroxyphenyl)benzo[c]isothiazol-3-yl)piperazin-1-yl)prop-2-en-1-one]
> 100 µM | 0.05 µM |  |  |  | C=CC(=O)N1CCN(c2nc(=O)n(-c3ccccc3C(C)C)c3nc(-c4c(O)cccc4F)c(Cl)cc23)CC1 [Example 8-2, 6-chloro-7-(2-fluoro-6-hydroxyphenyl)-1-(2-(2-propanyl)phenyl)-4-(4-(2-propenoyl)-1-piperazinyl)pyrido[2,3-d]pyrimidin-2(1H)-one]
 |  | 20.6 µM |  |  | COc1cc(-c2c(Cl)cc3c(N4CCN(C(=O)/C=C/CN(C)C)CC4)snc3c2F)c2ccccc2c1 [Example 17-1, (2E)-1-(4-(5-Chloro-7-fluoro-6-(3-methoxy-1-naphthalenyl)-2,1-benzothiazol-3-yl)-1-piperazinyl)-4-(dimethylamino)-2-buten-1-one]
 |  | 23.0 µM |  |  | C=C(CO)C(=O)N1CCN(c2snc3c(F)c(-c4cc(OC)cc5ccccc45)c(Cl)cc23)CC1 [Example 18-1, 1-(4-(5-chloro-7-fluoro-6-(3-methoxy-1-naphthalenyl)-2,1-benzothiazol-3-yl)-1-piperazinyl)-2-(hydroxymethyl)-2-propen-1-one]
 |  | 24.6 µM |  |  | C=C(CO)C(=O)N1CCN(c2snc3c(F)c(-c4cc(O)cc5ccccc45)c(Cl)cc23)CC1 [Example 18-3, 1-(4-(5-chloro-7-fluoro-6-(3-hydroxy-1-naphthalenyl)-2,1-benzothiazol-3-yl)-1-piperazinyl)-2-(hydroxymethyl)-2-propen-1-one]
 |  | 15.2 µM |  |  | C=CC(=O)N1CCN(c2snc3c(F)c(-c4cc(OC)cc5cnn(C)c45)c(Cl)cc23)CC1 [Example 19-1, 1-(4-(5-chloro-7-fluoro-6-(5-methoxy-1-methyl-1H-indazol-7-yl)-2,1-benzothiazol-3-yl)-1-piperazinyl)-2-propen-1-one]
 |  | 115 µM |  |  | C=CC(=O)N1CCN(c2snc3c(F)c(-c4cc(O)cc5cn(C)nc45)c(Cl)cc23)CC1 [Example 19-3, 1-(4-(5-chloro-7-fluoro-6-(5-hydroxy-2-methyl-2H-indazol-7-yl)-2,1-benzothiazol-3-yl)-1-piperazinyl)-2-propen-1-one]
 |  | 78.8 µM |  |  | C=C(CCO)C(=O)N1CCN(c2snc3c(F)c(-c4cc(O)cc5ccccc45)c(Cl)cc23)CC1 [Example 20, 1-(4-(5-chloro-7-fluoro-6-(3-hydroxy-1-naphthalenyl)-2,1-benzothiazol-3-yl)-1-piperazinyl)-4-hydroxy-2-methylidene-1-butanone]
 |  | 9.41 µM |  |  | C=CC(=O)N1CCN(c2snc3c(F)c(-c4cc(O)cc5ncccc45)c(Cl)cc23)CC1 [Example 21, 1-(4-(5-chloro-7-fluoro-6-(7-hydroxy-5-quinolinyl)-2,1-benzothiazol-3-yl)-1-piperazinyl)-2-propen-1-one]
 |  | 6.20 µM |  |  | C=CC(=O)N1CCN(c2snc3c(F)c(-c4nc(NC)cc5ccccc45)c(Cl)cc23)CC1 [Example 24, 1-(4-(5-Chloro-7-fluoro-6-(3-(methylamino)-1-isoquinolinyl)-2,1-benzothiazol-3-yl)-1-piperazinyl)-2-propen-1-one]
 |  | 123 µM |  |  | C=CC(=O)N1CCN(c2nnc(-c3ccccc3)c3cc(Cl)c(-c4c(O)cccc4F)cc23)CC1 [Example 31, 2-(4-(4-acryloyl-1-piperazinyl)-7-chloro-1-phenyl-6-phthalazinyl)-3-fluorophenol]
 |  | 34.2 µM |  |  | C=CC(=O)N1CCN(c2nnc(Cc3ccccc3)c3cc(Cl)c(Cl)cc23)CC1 [Example 34, 1-(4-Acryloyl-1-piperazinyl)-4-benzyl-6,7-dichlorophthalazine]
 |  | 39.8 µM |  |  | C=CC(=O)N1CCN(c2nnc(Cc3ccccc3)c3cc(Cl)c(-c4c(O)cccc4F)cc23)CC1 [Example 36, 2-(4-(4-acryloyl-1-piperazinyl)-1-benzyl-7-chloro-6-phthalazinyl)-3-fluorophenol]

Structure (SMILES) | IC50 ([1]; Homo sapiens, A549, A549 cells) | IC50 [2, 4] | Coupled exchange IC50 [3] | IC50 ([1]; A549 cells) | IC50 ([2]; MIA PaCa-2 cells)
C=CC(=O)N1CCN(c2snc3nc(-c4c(O)cccc4F)c(Cl)cc23)[C@@H](C)C1 (racemic) [Example 2-3, 1-(4-(5-chloro-6-(2-fluoro-6-hydroxyphenyl)[1,2]thiazo[3,4-b]pyridin-3-yl)-3-methyl-1-piperazinyl)-2-propen-1-one] | > 100 µM | 6.53 µM | 4.05 µM |  | 
